Data from patent publication US20260183303A1, “PDK1 REGULATORY COMPOUND AND COMPOSITION CONTAINING THE SAME” (PROVIBIO CO., LTD., priority 2024, published 2026).

How the values were obtained:
[1] = system: HCT-116 colon cancer cell lines; experiment: Invasion Assay using Matrigel, HCT-116; type: cell-based, Human; details: HCT-116, Matrigel, 24 hours treatment, vs DMSO
Protocol: To evaluate the metastasis inhibitory efficacy of the compounds of the present invention on HCT-116 colon cancer cell lines, an Invasion Assay using Matrigel was performed to assess the cells' invasion ability.
First, Matrigel was thawed on ice in RPMI-1640 medium without FBS, then diluted with DMEM at a ratio of 1:20.
The diluted Matrigel mixture was applied to the upper chamber at 100 μl per well, and 750 μl of RPMI-1640 without FBS was added to the lower chamber.
The plates were then incubated at 37° C. for 1 hour to allow the Matrigel to solidify.
After coating, the Matrigel mixture in the upper chamber was removed using a pipette, and the chamber was washed with RPMI without FBS.
Human-derived colorectal cancer cell line HCT-116, obtained from the Korean Cell Bank, was cultured in RPMI-1640 medium containing 10% FBS. […]
After staining was complete, any remaining cells in the upper chamber were removed. Finally, the infiltrated cells were observed under a microscope, photographed, and the degree of infiltration was analyzed.

[2] = system: T cells isolated from mouse spleens; experiment: T cell proliferation inhibition (CFSE flow cytometry, anti-CD3/anti-CD28 activation); type: cell-based, C57BL/6 mice; details: mouse spleen T cells, CD3/CD28 activated, cultured three days
Method in brief: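 Splenic T cells from 7-week-old C57BL/6 mice were CFSE-labelled and seeded at 2×10^5/well. They were activated with anti-CD3/anti-CD28 ([…]) and treated with compound at […] in triplicate for 3 days at 37 °C. Proliferation was read by CFSE dilution on flow cytometry and expressed as % inhibition.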

## 12-(4-Hydroxypiperazin-1-Yl)Dodecyl-N-(6-Aminopurazin-2-Yl)Carboxamide [Compound 10]
[1]
  number of infiltrated cells (invasion): reduction in the number of infiltrated cells
[2]; 10 nM
  Proliferation inhibition rate (%): 100.00%
[2]; 100 nM
  Proliferation inhibition rate (%): 100.00%
[2]; 1 μM
  Proliferation inhibition rate (%): 100.00%
[2]; 10 μM
  Proliferation inhibition rate (%): 100.00%
[2]; 30 μM
  Proliferation inhibition rate (%): 100.00%
[2]; 50 μM
  Proliferation inhibition rate (%): 100.00%
